Measured values as given in publication PMC7397659, “Pseudonajide peptide derived from snake venom alters cell envelope integrity interfering on biofilm formation in Staphylococcus epidermidis” (BMC Microbiology, 2020).
Where no end group is shown, it is not given here.

Key:
MCF7 (breast cancer) = assay: Cytotoxicity test, ImPACcell platform; format: cell-based, human; details: 25 μM, 24 h
Experimental: (§1) Cytotoxicity tests were performed on the ImPACcell robotic platform (BIOSIT, Université de Rennes 1). This featured high-throughput multiparameter image analysis, with both high-content screening and high-content analysis. The platform is equipped with an Olympus microscope and Compix SimplePCI software; a Zeiss Axio Imager M1 microscope with a Zeiss camera and AxioVision software; and imaging systems including an ArrayScan VTI Cellomics reader (Thermo Fisher), Hamilton STARlet and NIMBUS workstations, and a Scienion spotter. Cells used in the test were obtained from an already-existing collection available at BIOSIT (https://biosit.univ-rennes1.fr/impaccell-imagerie-pour-analyse-du-contenu-cellulaire). For the tests, seven different cell lines were used: human hepatocellular carcinoma (HuH7); colorectal adenocarcinoma (Caco-2); breast adenocarcinoma (MDA-MB231); colorectal carcinoma (HCT116); prostatic adenocarcinoma (PC3); lung carcinoma (NCL-H727); and breast cancer (MCF7). The residual cell percentages reported correspond to viable cells compared to the average viable cells in the DMSO control. Viability of 100% represents no cytotoxicity or inhibition of cell growth, while under 25–30% is considered cytotoxic and 0% represents acute cytotoxicity.

[1] = system: HuH7 (hepatocellular carcinoma); assay: Cytotoxicity test, ImPACcell platform; format: cell-based, human; details: 25 μM, 24 h
Experimental: as §1

[2] = system: HCT116 (colorectal carcinoma); assay: Cytotoxicity test, ImPACcell platform; format: cell-based, human; details: 25 μM, 24 h
Experimental: as §1

[3] = system: Caco-2 (colorectal adenocarcinoma); assay: Cytotoxicity test, ImPACcell platform; format: cell-based, human; details: 25 μM, 24 h
Experimental: as §1

[4] = system: MDA-MB231 (breast adenocarcinoma); assay: Cytotoxicity test, ImPACcell platform; format: cell-based, human; details: 25 μM, 24 h
Experimental: as §1

[5] = system: PC3 (prostatic adenocarcinoma); assay: Cytotoxicity test, ImPACcell platform; format: cell-based, human; details: 25 μM, 24 h
Experimental: as §1

[6] = system: NCL-H727 (lung carcinoma); assay: Cytotoxicity test, ImPACcell platform; format: cell-based, human; details: 25 μM, 24 h
Experimental: as §1

[7] = system: S. epidermidis ATCC 35984; assay: Antibiofilm formation test, crystal violet protocol; format: cell-based, Staphylococcus epidermidis; details: 100 μM peptide, 24 h exposure, crystal violet OD570, at least 3 biological replicates
Experimental: S. epidermidis ATCC 35984 and Pseudomonas aeruginosa PAO1 were used to test the antimicrobial and antibiofilm activities of the peptides. Both bacteria were grown in blood agar plates and cultured overnight at 37 °C. Cell suspensions were prepared in a solution of 0.9% NaCl and adjusted to OD600 for a final concentration of ~ 10^8 cells/ml. For microscopy analysis, pre-inoculum was made in tryptic soy broth (TSB, Merck), and adjusted to OD600 for the same concentration of cells for all tests.
Serial dilution of peptides was performed in 96-well plates, going from 100 to 3.12 μM. Cell suspensions and TSB were added to the plates and a control was made with dimethyl sulfoxide (DMSO). Antibiofilm formation tests were performed with an adapted protocol, in which it is described that 24 h of incubation is sufficient to determinate antibiofilm activity. The OD600 was measured, then biofilm content accessed using the crystal violet protocol. Biofilm eradication test was performed supplementing 24 h pre-formed biofilm with a new culture broth, containing or not 25 μM of peptide. The plates were incubated for further 24 h followed by crystal violet protocol. The antimicrobial activity of pseudonajide was analyzed using a concentration of 25 μM after 1, 2, 4, and 24 h incubation. After measuring the optical density, the supernatant was collected and diluted. […] CFUs were counted after 24 h incubation. […]

Row | Sequence | live cell counts compared to control (MCF7 (breast cancer)) | live cell counts compared to control [1] | live cell counts compared to control [2] | live cell counts compared to control [3] | live cell counts compared to control [4] | live cell counts compared to control [5] | live cell counts compared to control [6] | reduction of biofilm mass [7]
1 | KRFKKFFMKLK [Peptide 2] | no decrease in live cell counts | no decrease in live cell counts | no decrease in live cell counts | no decrease in live cell counts | no decrease in live cell counts | no decrease in live cell counts | no decrease in live cell counts | –
2 | KRFKKFFKKVK [Peptide 1] | – | – | – | – | – | – | – | 77%
3 | KRFKKFFKKLK [Peptide 3] | – | – | – | – | – | – | – | 78%
